Read-outs that look alike come from different tables or passages of the source.
Key:
Huh-7.5 cells = assay: Cell viability assay ([…]-GLO); assay type: cell-based, human; conditions: for Cell viability (% viable): 10 μM compound, triplicate, average ± SD
Method: To assess compound toxicity toward Huh-7.5 cells, cells were plated and treated as above and cell viability was assessed using the […]-GLO luminescent cell viability kit (PROMEGA) following the manufacturer's instructions. Briefly, at the end of a 72 hour incubation period, the medium was aspirated and the cells were washed with 1×PBS, then an equal volume of growth medium and […]-GLO reagent was added and the lysis was initiated by mixing on an orbital shaker. The plate was incubated at 23° C. for 30 minutes and the luciferase activity was measured for 1 second using the FLUOSTAR Omega microplate reader (BMG Labtech).

[1] = biological target: T1, E. coli SSB-Cy5-dT15 complex (Escherichia coli, UniProt P0AGE0); assay: Escherichia coli SSB Cy5-dT15 binding assay (fluorescence polarization); conditions: for IC50: disruption of Cy5-dT15-SSB complex, read-out: Cy5-dT15-SSB Binding IC50; for inhibition at 100 µM: read-out: SSB % Displaced @ 100 μM; for EC50: read-out: SSB EC50
T1 construct: purchased Promega
Method: The Escherichia coli SSB assay was performed in a total volume of 20.2 μl in 384-well, flat-bottom, low volume, black microplates (Greiner Bio-One). First, 20 μl of a assay solution (5 nM Cy5-[…]-3′ (Cy5-dT15, SEQ ID NO:5), 20 nM E. coli SSB (Promega), 25 mM MOPS, pH 7.5, 1.25 mM MgCl2, 0.0025 mg/ml BSA, 0.005% (v/v) TWEEN 20 and 0.025 mM DTT) was dispensed in each well, then 0.2 μl of dimethylsulfoxide (DMSO) or compound dissolved in DMSO was added by pin transfer, such that the final concentration of DMSO was 1% (v/v) in each assay.
For IC50 determination, assays were performed with 60 μl total volume in black flat bottomed 384-well microplates (Corning). First, 3.0 μl of DMSO or compound dissolved in DMSO was added, such that the final concentration of DMSO was 5% (v/v) in each assay. Then 57 μl of a assay solution (5 nM Cy5-dT15, 20 nM SSB, 25 mM MOPS, pH 7.5, 1.25 mM MgCl2, 0.0025 mg/ml BSA, 0.005% (v/v) TWEEN 20 and 0.025 mM DTT) was dispensed in each well. Polarization was monitored with a TECAN Infinite M1000 PRO multi-mode microplate reader by exciting at 635 nm (5 nm bandwidth) and measuring total fluorescence intensity, parallel and perpendicular polarized light at 667 nm (20 nm bandwidth).

NS3h_2a(JFH1) = biological target: T2, NS3h_2a(JFH1) (Hepatitis C virus genotype 2a, UniProt Q99IB8); assay: MBHA, DNA substrate, genotype 2a helicase; assay type: biochemical, hepatitis C virus genotype 2a(JFH1)
T2 construct: truncated C-terminally His-tagged NS3 proteins lacking the N-terminal protease, called NS3h; His-tag (C); made in house
Method: All oligonucleotides were purchased from Integrated DNA Technologies (IDT, Coralville, Iowa). Primuline derivatives were synthesized and purified as described herein. Three different NS3 proteins were used in this study. Two were truncated C-terminally His-tagged NS3 proteins lacking the N-terminal protease, called NS3h, the third was a full-length NS3 with the portion of NS4A needed for protease activation fused to its N-terminus, called scNS4A-NS3 (Howe, et al. (1999) Protein Sci. 8:1332-41), and the fourth was a 23 kDa scNS4A-NS3 protease fragment lacking the helicase domains, called scNS4A-NS3p (Protein One, Rockville, Md.). NS3h was expressed from two different HCV strains. NS3h_1b(con1) was from the con1 strain of genotype 1b (GENBANK accession AB114136), and NS3h_2a(JFH1) was from the JFH1 strain of HCV genotype 2a (GENBANK accession AJ238799). […] His-tagged recombinant NS3h_1b(con1), NS3h_2a(JFH1), and scNS4A-NS3 (also from genotype 1b(con1)) were expressed, and purified as previously described (Frick, et al. (2010) supra; Lam, et al. (2003) J. Virol. 77:3950-3961). The scNS4A-NS3p (genotype 1b) was from Protein One. A plasmid expressing NS3h from dengue virus strain 2 (NS3h_DV2)(GENBANK accession 2BMF) is known in the art (Xu, et al. (2005) J. Virol. 79:10278-10288), and used to express and purify NS3h_DV2 (Belon, et al. (2010) supra)
Compounds that specifically target less conserved regions of a HCV protein are often not potent inhibitors of the same protein derived from other genotypes, and they might be susceptible to rapid evolution of related viruses. As described herein, primuline derivatives can inhibit HCV helicase isolated from the genotype 1b(con1) strain. Therefore to further analyze specificity, the subset of primuline analogs was tested on the helicase isolated from the genotype 2a(JFH1) strain. The two recombinant proteins differ at 83 of their 480 amino acids. The JHF1 strain is also of interest because it serves as the backbone for HCV strains capable of replicating in cell culture (Wakita, et al. (2005) Nat. Med. 11:791-796). The molecular beacon-based helicase assay (MBHA) (Belon & Frick (2008) supra) was used to measure the ability of each compound to inhibit DNA unwinding catalyzed by NS3h isolated from genotype 2a(JFH1) (NS3h_2a(JFH1)). […] Selected compounds were also tested for the ability to inhibit helicase reactions catalyzed by full-length NS3 and a single chain NS4A-NS3 protein (scNS4A-NS3) described below and used for protease assays.

[2] = DNA-based MBHA, genotype 2a(JFH1), read-out: DNA Helicase NS3h_2a IC50 (μM) ± SD
[3] = genotype 2a (JFH1), read-out: Target Potency MBHA (IC50 avg., μM) 2a (JFH1) (converted)

T2 sequence (Q99IB8 1196-1661): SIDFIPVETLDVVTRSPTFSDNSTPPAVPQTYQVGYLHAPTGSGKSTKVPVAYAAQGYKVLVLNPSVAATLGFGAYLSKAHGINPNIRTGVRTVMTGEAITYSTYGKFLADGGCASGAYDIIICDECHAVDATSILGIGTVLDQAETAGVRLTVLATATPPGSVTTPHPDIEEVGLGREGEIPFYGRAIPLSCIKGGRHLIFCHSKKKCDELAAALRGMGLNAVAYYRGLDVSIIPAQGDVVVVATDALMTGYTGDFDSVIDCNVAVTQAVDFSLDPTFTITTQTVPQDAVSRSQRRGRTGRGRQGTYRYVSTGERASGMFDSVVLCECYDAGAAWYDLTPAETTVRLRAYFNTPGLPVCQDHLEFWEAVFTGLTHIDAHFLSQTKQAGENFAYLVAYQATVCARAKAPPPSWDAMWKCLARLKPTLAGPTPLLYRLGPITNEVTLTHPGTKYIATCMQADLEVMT
T1 sequence (P0AGE0 2-178, one chain of several): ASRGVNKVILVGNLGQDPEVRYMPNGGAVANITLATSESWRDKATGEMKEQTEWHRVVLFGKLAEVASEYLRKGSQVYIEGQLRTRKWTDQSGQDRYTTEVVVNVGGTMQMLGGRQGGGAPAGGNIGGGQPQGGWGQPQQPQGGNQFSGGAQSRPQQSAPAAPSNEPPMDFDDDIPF

`Cc1ccc2nc(-c3ccc4nc(-c5ccc(NC(=O)c6ccc(Br)cc6)cc5)sc4c3)sc2c1S(=O)(=O)O` [Compound 15, 2′-(4-(4-bromobenzamido)phenyl)-6-methyl-[2,6′-bibenzo[d]thiazole]-7-sulfonic acid] was tested, and the “Cell Viability (% @ 10 μM)” value (Huh-7.5 cells) was 113 ± 5%, the “Cell viability (% viable)” value (Huh-7.5 cells) was 113 ± 5% and the IC50 [1] was 27 ± 6 µM. The inhibition at 100 µM [1] was 91%, the EC50 [1] was 27 ± 6 µM and the IC50 (NS3h_2a(JFH1); [2]) was 7 ± 3.3 µM. The IC50 (NS3h_2a(JFH1); [3]) was 7.4 ± 3 µM.
For `Cc1ccc2nc(-c3ccc4nc(-c5ccc(NC(=O)c6ccc(NC(=O)OCC7c8ccccc8-c8ccccc87)cc6)cc5)sc4c3)sc2c1S(=O)(=O)O` [Compound 16, 2′-(4-(4-((((9H-fluoren-9-yl)methoxy)carbonyl)amino)benzamido)phenyl)-6-methyl-[2,6′-bibenzo[d]thiazole]-7-sulfonic acid], the “Cell Viability (% @ 10 μM)” value (Huh-7.5 cells) was 92 ± 4%, the “Cell viability (% viable)” value (Huh-7.5 cells) was 92 ± 4% and the IC50 [1] was 179 ± 239 µM. The inhibition at 100 µM [1] was 53%, the EC50 [1] was greater than 100 µM and the IC50 (NS3h_2a(JFH1); [3]) was 5.8 ± 3.1 µM.
For `Cc1ccc2nc(-c3ccc4nc(-c5ccc(NC(=O)c6cccc(Cl)c6)cc5)sc4c3)sc2c1S(=O)(=O)O` [Compound 17, 2′-(4-(3-chlorobenzamido)phenyl)-6-methyl-[2,6′-bibenzo[d]thiazole]-7-sulfonic acid], the “Cell Viability (% @ 10 μM)” value (Huh-7.5 cells) was 112 ± 4%, the “Cell viability (% viable)” value (Huh-7.5 cells) was 112 ± 4% and the IC50 [1] was 201 ± 119 µM. For the same compound, the inhibition at 100 µM [1] was 47%, the EC50 [1] was greater than 100 µM and the IC50 (NS3h_2a(JFH1); [2]) was 4 ± 0.5 µM. The IC50 (NS3h_2a(JFH1); [3]) was 3.9 ± 1 µM.
With `Cc1ccc2nc(-c3ccc4nc(-c5ccc(NC(=O)c6ccc(Cl)c(Cl)c6)cc5)sc4c3)sc2c1S(=O)(=O)O` [Compound 18, 2′-(4-(3,4-dichlorobenzamido)phenyl)-6-methyl-[2,6′-bibenzo[d]thiazole]-7-sulfonic acid] the “Cell Viability (% @ 10 μM)” value (Huh-7.5 cells) was 114 ± 7%, the “Cell viability (% viable)” value (Huh-7.5 cells) was 114 ± 7% and the IC50 [1] was 128 ± 57 µM. The inhibition at 100 µM [1] was 53%, the EC50 [1] was greater than 100 µM and the IC50 (NS3h_2a(JFH1); [3]) was 4.5 ± 1 µM.
For `Cc1ccc2nc(-c3ccc4nc(-c5ccc(NC(=O)c6ccccc6C(F)(F)F)cc5)sc4c3)sc2c1S(=O)(=O)O` [Compound 19, 6-methyl-2′-(4-(2-(trifluoromethyl)benzamido)phenyl)-[2,6′-bibenzo[d]thiazole]-7-sulfonic acid], the “Cell Viability (% @ 10 μM)” value (Huh-7.5 cells) was 112 ± 1%, the “Cell viability (% viable)” value (Huh-7.5 cells) was 112 ± 1% and the IC50 [1] was 13 ± 2 µM. The inhibition at 100 µM [1] was 92%, the EC50 [1] was 13 ± 2 µM and the IC50 (NS3h_2a(JFH1); [3]) was 24.3 ± 9 µM.
With `Cc1ccc2nc(-c3ccc4nc(-c5ccc(NC(=O)c6cccc(C(F)(F)F)c6)cc5)sc4c3)sc2c1S(=O)(=O)O` [Compound 20, 6-methyl-2′-(4-(3-(trifluoromethyl)benzamido)phenyl)-[2,6′-bibenzo[d]thiazole]-7-sulfonic acid] the “Cell Viability (% @ 10 μM)” value (Huh-7.5 cells) was 121 ± 3%, the “Cell viability (% viable)” value (Huh-7.5 cells) was 121 ± 3% and the inhibition at 100 µM [1] was 23%. It also gave an EC50 [1] greater than 100 µM and an IC50 (NS3h_2a(JFH1); [3]) of 15.9 ± 2 µM.
For `Cc1ccc2nc(-c3ccc4nc(-c5ccc(NC(=O)c6c(F)cccc6C(F)(F)F)cc5)sc4c3)sc2c1S(=O)(=O)O` [Compound 21, 2′-(4-(2-fluoro-6-(trifluoromethyl)benzamido)phenyl)-6-methyl-[2,6′-bibenzo[d]thiazole]-7-sulfonic acid], the “Cell Viability (% @ 10 μM)” value (Huh-7.5 cells) was 122 ± 2%, the “Cell viability (% viable)” value (Huh-7.5 cells) was 122 ± 2% and the IC50 [1] was 13 ± 1 µM. The inhibition at 100 µM [1] was 96%, the EC50 [1] was 13 ± 1 µM and the IC50 (NS3h_2a(JFH1); [3]) was 54 ± 19.7 µM.
In the case of `Cc1ccc2nc(-c3ccc4nc(-c5ccc(NC(=O)c6cccc(C(F)(F)F)c6F)cc5)sc4c3)sc2c1S(=O)(=O)O` [Compound 22, 2′-(4-(2-fluoro-3-(trifluoromethyl)benzamido)phenyl)-6-methyl-[2,6′-bibenzo[d]thiazole]-7-sulfonic acid], the “Cell Viability (% @ 10 μM)” value (Huh-7.5 cells) is reported as 122 ± 1%, the “Cell viability (% viable)” value (Huh-7.5 cells) is reported as 122 ± 1% and the IC50 [1] is reported as 71 ± 13 µM. For the same compound, the inhibition at 100 µM [1] was 63%, the EC50 [1] was 71 ± 13 µM and the IC50 (NS3h_2a(JFH1); [3]) was 8.1 ± 2 µM.
`Cc1ccc2nc(-c3ccc4nc(-c5ccc(NC(=O)c6ccc(C(F)(F)F)c(F)c6)cc5)sc4c3)sc2c1S(=O)(=O)O` [Compound 23, 2′-(4-(3-fluoro-4-(trifluoromethyl)benzamido)phenyl)-6-methyl-[2,6′-bibenzo[d]thiazole]-7-sulfonic acid] was tested, and the “Cell Viability (% @ 10 μM)” value (Huh-7.5 cells) was 129 ± 2%, the “Cell viability (% viable)” value (Huh-7.5 cells) was 129 ± 2% and the IC50 [1] was 10 ± 1 µM. The inhibition at 100 µM [1] was 92%, the EC50 [1] was 10 ± 1 µM and the IC50 (NS3h_2a(JFH1); [3]) was 13 ± 2 µM.
For `Cc1ccc2nc(-c3ccc4nc(-c5ccc(NC(=O)c6cc(C(F)(F)F)cc(C(F)(F)F)c6)cc5)sc4c3)sc2c1S(=O)(=O)O` [Compound 24, 2′-(4-(3,5-bis(trifluoromethyl)benzamido)phenyl)-6-methyl-[2,6′-bibenzo[d]thiazole]-7-sulfonic acid], the “Cell Viability (% @ 10 μM)” value (Huh-7.5 cells) was 122 ± 5%, the “Cell viability (% viable)” value (Huh-7.5 cells) was 122 ± 5% and the “toxicity at highest concentration tested” value (Huh-7.5 cells; 50 μM) was “not toxic”. It also gave an IC50 [1] of 36 ± 7 µM, an inhibition at 100 µM [1] of 73% and an EC50 [1] of 36 ± 7 µM. The IC50 (NS3h_2a(JFH1); [2]) was 29 ± 5.2 µM and the IC50 (NS3h_2a(JFH1); [3]) was 28.7 ± 5 µM.
`Cc1ccc2nc(-c3ccc4nc(-c5ccc(NC(=O)c6cc(C(F)(F)F)ccc6F)cc5)sc4c3)sc2c1S(=O)(=O)O` [Compound 25, 2′-(4-(2-fluoro-5-(trifluoromethyl)benzamido)phenyl)-6-methyl-[2,6′-bibenzo[d]thiazole]-7-sulfonic acid] was tested, and the “Cell Viability (% @ 10 μM)” value (Huh-7.5 cells) was 132 ± 14%, the “Cell viability (% viable)” value (Huh-7.5 cells) was 132 ± 14% and the IC50 [1] was 12 ± 8 µM. The inhibition at 100 µM [1] was 69%, the EC50 [1] was 12 ± 8 µM and the IC50 (NS3h_2a(JFH1); [2]) was 7 ± 0.9 µM. For the same compound, the IC50 (NS3h_2a(JFH1); [3]) was 6.7 ± 1 µM.
In the case of `Cc1ccc2nc(-c3ccc4nc(-c5ccc(NC(=O)c6cc(F)ccc6C(F)(F)F)cc5)sc4c3)sc2c1S(=O)(=O)O` [Compound 26, 2′-(4-(5-fluoro-2-(trifluoromethyl)benzamido)phenyl)-6-methyl-[2,6′-bibenzo[d]thiazole]-7-sulfonic acid], the “Cell Viability (% @ 10 μM)” value (Huh-7.5 cells) is reported as 118 ± 4%, the “Cell viability (% viable)” value (Huh-7.5 cells) is reported as 118 ± 4% and the IC50 [1] is reported as 14 ± 2 µM. For the same compound, the inhibition at 100 µM [1] was 95%, the EC50 [1] was 14 ± 2 µM and the IC50 (NS3h_2a(JFH1); [3]) was 16.6 ± 2 µM.
For `Cc1ccc2nc(-c3ccc4nc(-c5ccc(NC(=O)c6cc(F)cc(C(F)(F)F)c6)cc5)sc4c3)sc2c1S(=O)(=O)O` [Compound 27, 2′-(4-(3-fluoro-5-(trifluoromethyl)benzamido)phenyl)-6-methyl-[2,6′-bibenzo[d]thiazole]-7-sulfonic acid], the “Cell Viability (% @ 10 μM)” value (Huh-7.5 cells) was 113 ± 1%, the “Cell viability (% viable)” value (Huh-7.5 cells) was 113 ± 1% and the inhibition at 100 µM [1] was 23%. For the same compound, the EC50 [1] was greater than 100 µM and the IC50 (NS3h_2a(JFH1); [3]) was 15.8 ± 2.2 µM.

— US9464064B2, “HCV helicase inhibitors and methods of use thereof” (University of Kansas, priority 2011, dated 2016)
